In patent US20260034123A1 (Cedilla Therapeutics, Inc., priority 2022, published 2026):

Legend:
CDK2/Cyclin E1 [1] = biological target: T1, CDK2/Cyclin E1 (Homo sapiens, UniProt P24941); assay: Caliper LabChip EZ Reader mobility shift assay; format: biochemical; details: 2.5 nM CDK2/Cyclin E1(14-475), 100 μM ATP, 30 min preincubation; read-out: Caliper Assay (CDK2/CCNE1): IC50
Description: Inhibition of CDK2/Cyclin E1 activity in the presence of compounds of the present disclosure was evaluated using a Caliper LabChip® EZ Reader mobility shift assay. In the assay, activated CDK2/Cyclin E1 catalyzes the phosphorylation of a fluorescently tagged peptide 5-FAM-QSPKKG-CONH2 (PerkinElmer, FL Peptide 18) which induces a difference in capillary electrophoresis mobility. The peptide substrate and product were measured, and the conversion ratio was used to determine the inhibition (as % activity and IC50 values) of CDK2/Cyclin E1. Reactions contained 50 mM HEPES pH 7.5, 10 mM MgCl2, 1 mM EDTA, 2 mM DTT, 0.01% Brij35, 0.5 mg/mL BSA, 0.1% DMSO, 2.5 nM CDK2/Cyclin E1(14-475), 100 μM ATP, and 1.5 μM fluorescent peptide substrate.
Dose titrations of inhibitors in 100% DMSO were combined with 3.25 nM CDK2/Cyclin E1(14-475) and 130 μM of ATP in reaction buffer. The mixtures were incubated for 30 minutes before the addition of fluorescent peptide substrate to initiate the kinase reaction. The final conditions were 2.5 nM CDK2/Cyclin E1(14-475), 100 μM ATP, and 1.5 μM fluorescent peptide. The reactions were stopped after 100 minutes with the addition of EDTA (6 mM final EDTA concentration). The stopped reactions were analyzed on a Caliper LabChip® EZ Reader 11. The conversion ratios were normalized to yield % activity, plotted against compound concentration, and fit to a four-parameter equation to determine the IC50 for each compound.

Kuramochi cells RB-WT = assay: IncuCyte Kuramochi cell proliferation assay, RB-WT; format: cell-based; details: 72 hours, cell count
Method in brief: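 GI50 was derived by curve-fitting DMSO-normalized fold change in nuclear count between 0 and 72 h. Counts came from images of Kuramochi cells carrying mApple-H2B. Compounds were dosed over 10 points at 1/2-log spacing from a 20 µM top concentration.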

CDK2/Cyclin E1 [2] = biological target: T1, CDK2/Cyclin E1; assay: ADP-Glo Luminescent Kinase Assay (CDK2/E1-37C); format: biochemical; details: 0.18 nM CDK2/Cyclin E1, 100 μM ATP, Histone H1, 37° C.; read-out: ADPGLO (CDK2/E1-37C): IC50
Method in brief: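 IC50 fitted by four-parameter equation from ADP-Glo luminescence converted to % activity. Compounds were preincubated 60 min at 37 °C with enzyme, then kinase reaction ran 90 min at 37 °C with 0.18 nM enzyme, 100 μM ATP, Histone H1 ([…]), pH 7.5 HEPES, Mg2+, DTT.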

| Structure (SMILES) | IC50 (CDK2/Cyclin E1 [1]) [µM] | IC50 (CDK2/Cyclin E1 [2]) [µM] | IC50 (Kuramochi cells RB-WT) [µM] |
| --- | --- | --- | --- |
| CC1(C)C[C@@H]1C(=O)N1CC2(CN(C(=O)c3cncs3)C[C@H]2COCc2ccn(C3CCCC3)n2)C1 [Compound I-38, ((S)-8-(((1-cyclopentyl-1H-pyrazol-3-yl)methoxy)methyl)-2-((S)-2,2-dimethylcyclopropane-1-carbonyl)-2,6-diazaspiro[3.4]octan-6-yl)(thiazol-5-yl)methanone] | 0.1 to 1 | > 10 | > 10 |
| CC(OCc1cccc(C2CCOCC2)n1)[C@@H]1CN(C(=O)c2cncs2)CC12CN(C(=O)[C@H]1CC1(C)C)C2 (stereo partly drawn) [Compound I-35, ((S)-2-((S)-2,2-dimethylcyclopropane-1-carbonyl)-8-(1-((6-(tetrahydro-2H-pyran-4-yl)pyridin-2-yl)methoxy)ethyl)-2,6-diazaspiro [3.4]octan-6-yl) (thiazol-5-yl) methanone] | > 10 | – | > 10 |
| CC1(C)C[C@@H]1C(=O)N1CC2(CN(C(=O)c3cncs3)C[C@H]2COC(COC2CCC(F)(F)CC2)c2cccc(C3CCOCC3)n2)C1 (stereo partly drawn) [Compound I-13, ((8S)-8-((2-((4,4-difluorocyclohexyl)oxy)-1-(6-(tetrahydro-2H-pyran-4-yl)pyridin-2-yl)ethoxy)methyl)-2-((S)-2,2-dimethylcyclopropane-1-carbonyl)-2,6-diazaspiro[3.4]octan-6-yl)(thiazol-5-yl)methanone] | 0.1 to 1 | – | > 10 |
| O=C(c1cncs1)N1C[C@@H](COCc2cccc(-c3ccc(C4CC4)cc3)n2)C2(CN(CC3CCCO3)C2)C1 (stereo partly drawn) [Compound I-8, ((8S)-8-(((6-(4-cyclopropylphenyl)pyridin-2-yl)methoxy)methyl)-2-((tetrahydrofuran-2-yl)methyl)-2,6-diazaspiro[3.4]octan-6-yl)(thiazol-5-yl)methanone] | > 10 | – | > 10 |

The next lines start with results.

| IC50 (CDK2/Cyclin E1 [1]) [µM] | IC50 (CDK2/Cyclin E1 [2]) [µM] | Structure (SMILES) | IC50 (Kuramochi cells RB-WT) [µM] |
| --- | --- | --- | --- |
| 1 to 10 | > 10 | CC1(C)C[C@@H]1C(=O)N1CC2(CN(C(=O)c3cnn(Cc4ccc(C(=O)O)cc4)c3)CC2COCc2cccc(-c3ccc(C(F)(F)F)cc3)n2)C1 (stereo partly drawn) [Compound I-6, 4-((4-(2-((S)-2,2-dimethylcyclopropane-1-carbonyl)-8-(((6-(4-(trifluoromethyl)phenyl)pyridin-2-yl)methoxy)methyl)-2,6-diazaspiro[3.4]octane-6-carbonyl)-1H-pyrazol-1-yl)methyl)benzoic acid] | > 10 |
| 0.01 to 0.1 | 0.5 to 5 | COC(=O)c1c(COCC2CN(C(=O)c3cncs3)CC23CN(C(=O)[C@H]2CC2(C)C)C3)cccc1-c1ccc(C(F)(F)F)cc1 (stereo partly drawn) [Compound I-5, methyl 3-(((2-((S)-2,2-dimethylcyclopropane-1-carbonyl)-6-(thiazole-5-carbonyl)-2,6-diazaspiro[3.4]octan-8-yl)methoxy)methyl)-4′-(trifluoromethyl)-[1,1′-biphenyl]-2-carboxylate] | 5 to 10 |
| 0.1 to 1 | – | CC1(C)C[C@@H]1C(=O)N1CC2(CN(C(=O)c3cncs3)C[C@H]2COCc2cccc(-c3ccc(C(F)(F)F)nc3)n2)C1 [Compound I-21, ((S)-2-((S)-2,2-dimethylcyclopropane-1-carbonyl)-8-(((6′-(trifluoromethyl)-[2,3′-bipyridin]-6-yl)methoxy)methyl)-2,6-diazaspiro[3.4]octan-6-yl)(thiazol-5-yl)methanone] | > 10 |
| > 10 | – | O=C([C@H]1CC1(F)F)N1CC2(CN(Cc3cncs3)C[C@H]2COCc2cccc(-c3ccc(C(F)(F)F)cc3)n2)C1 [Compound I-12, ((R)-2,2-difluorocyclopropyl)((S)-6-(thiazol-5-ylmethyl)-8-(((6-(4-(trifluoromethyl)phenyl)pyridin-2-yl)methoxy)methyl)-2,6-diazaspiro[3.4]octan-2-yl)methanone] | > 10 |
| 1 to 10 | – | CC1(C)C[C@@H]1C(=O)N1CC2(CN(C(=O)c3cncs3)C[C@H]2COCc2ccc(Cl)c(Cl)c2)C1 [Compound I-40, ((S)-8-(((3,4-dichlorobenzyl)oxy)methyl)-2-((S)-2,2-dimethylcyclopropanecarbonyl)-2,6-diazaspiro[3.4]octan-6-yl)(thiazol-5-yl)methanone] | > 10 |
